Laboratory results published in ChEMBL document CHEMBL1201862, “PubChem BioAssay data set” (2004).
The source made the active and inactive calls.

Columns and labels:
[1] = target: Melanocortin receptor 4 (Homo sapiens, UniProt P32245); type: functional, cell-based;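 also: Cell-based assay with luminescence read-out, confirmatory dose-response testing for agonist activity of biased ligands at MC4R; human U2OS cells with tagged receptor and beta-arrestin; potency of agonists that increase receptor coupling to beta-arrestin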
Melanocortin receptor 4, sequence (P32245 whole entry): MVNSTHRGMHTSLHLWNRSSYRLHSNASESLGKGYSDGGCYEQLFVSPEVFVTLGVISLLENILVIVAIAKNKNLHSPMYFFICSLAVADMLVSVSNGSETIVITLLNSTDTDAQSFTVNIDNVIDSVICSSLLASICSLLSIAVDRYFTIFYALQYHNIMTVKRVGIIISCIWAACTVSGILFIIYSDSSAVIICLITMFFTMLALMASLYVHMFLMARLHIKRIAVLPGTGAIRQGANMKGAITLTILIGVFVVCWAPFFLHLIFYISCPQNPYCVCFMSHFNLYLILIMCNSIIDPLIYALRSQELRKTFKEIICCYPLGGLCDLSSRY

[2] = tested on: A549; experiment: viability loss in A549 cells – cell-based, plate reader, cherry-pick samples, cytotoxicity control, dose response (AID 687028); type: functional; conditions: Homo sapiens
[3] = cells; type: functional, cell-based
[4] = target: Dual specificity protein phosphatase 3 (Homo sapiens, UniProt P51452); experiment: VHR phosphatase inhibition, dose response, selectivity assay for STEP inhibitor project, biochemical (AID 602374); type: functional; conditions: read-out: IC50_Mean
Dual specificity protein phosphatase 3, sequence (P51452 whole entry): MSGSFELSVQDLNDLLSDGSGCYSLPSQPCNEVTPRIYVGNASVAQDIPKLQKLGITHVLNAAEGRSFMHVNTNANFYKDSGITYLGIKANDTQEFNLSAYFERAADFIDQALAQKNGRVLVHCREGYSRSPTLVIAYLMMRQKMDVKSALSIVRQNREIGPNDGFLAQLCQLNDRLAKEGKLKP

[5] = target: Tyrosine-protein phosphatase non-receptor type 11 (Homo sapiens, UniProt Q06124); experiment: PTPN11 enzyme inhibitors – biochemical, selectivity assay for STEP inhibitor project, dose response (AID 602367); type: functional; conditions: read-out: IC50_Mean
Tyrosine-protein phosphatase non-receptor type 11, sequence (Q06124 whole entry, the tested form may be a part): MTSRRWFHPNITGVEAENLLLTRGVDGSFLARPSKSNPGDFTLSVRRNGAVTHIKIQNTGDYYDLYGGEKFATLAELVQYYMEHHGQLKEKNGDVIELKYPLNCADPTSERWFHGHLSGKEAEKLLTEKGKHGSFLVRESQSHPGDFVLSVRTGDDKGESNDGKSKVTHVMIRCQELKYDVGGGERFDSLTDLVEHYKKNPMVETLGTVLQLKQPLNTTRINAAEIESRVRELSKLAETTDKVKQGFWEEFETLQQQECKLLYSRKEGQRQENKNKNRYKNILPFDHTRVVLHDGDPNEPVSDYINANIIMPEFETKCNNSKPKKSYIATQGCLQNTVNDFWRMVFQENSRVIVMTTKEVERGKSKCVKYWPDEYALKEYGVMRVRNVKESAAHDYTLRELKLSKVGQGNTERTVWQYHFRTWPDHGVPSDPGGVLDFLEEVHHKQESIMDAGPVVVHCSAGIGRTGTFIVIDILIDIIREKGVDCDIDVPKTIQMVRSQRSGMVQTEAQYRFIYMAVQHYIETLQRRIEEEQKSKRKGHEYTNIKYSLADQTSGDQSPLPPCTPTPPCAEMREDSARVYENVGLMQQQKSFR

[6] = target: T1, Carboxy-terminal domain RNA polymerase II polypeptide A small phosphatase 1 (Homo sapiens, UniProt Q9GZU7); experiment: CTDSP1 inhibitors, concentration-response, biochemical, absorbance readout, ultra-high-throughput screen actives (AID 540297); type: functional
T1 sequence (Q9GZU7 whole entry): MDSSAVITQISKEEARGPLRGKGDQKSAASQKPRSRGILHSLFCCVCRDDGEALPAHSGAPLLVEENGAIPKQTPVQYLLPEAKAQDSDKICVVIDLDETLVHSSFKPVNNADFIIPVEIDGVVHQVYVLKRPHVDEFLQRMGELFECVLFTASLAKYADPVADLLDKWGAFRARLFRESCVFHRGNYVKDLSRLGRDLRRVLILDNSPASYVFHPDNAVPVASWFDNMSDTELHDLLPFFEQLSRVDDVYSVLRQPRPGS

[7] = target: Tyrosine-protein phosphatase non-receptor type 5 (Homo sapiens, UniProt P54829); experiment: PTPN5 enzyme inhibition – biochemical, fluorescence intensity, uHTS hits, confirmation (AID 602372); type: functional; conditions: read-out: IC50_Mean
Tyrosine-protein phosphatase non-receptor type 5, sequence (P54829 whole entry): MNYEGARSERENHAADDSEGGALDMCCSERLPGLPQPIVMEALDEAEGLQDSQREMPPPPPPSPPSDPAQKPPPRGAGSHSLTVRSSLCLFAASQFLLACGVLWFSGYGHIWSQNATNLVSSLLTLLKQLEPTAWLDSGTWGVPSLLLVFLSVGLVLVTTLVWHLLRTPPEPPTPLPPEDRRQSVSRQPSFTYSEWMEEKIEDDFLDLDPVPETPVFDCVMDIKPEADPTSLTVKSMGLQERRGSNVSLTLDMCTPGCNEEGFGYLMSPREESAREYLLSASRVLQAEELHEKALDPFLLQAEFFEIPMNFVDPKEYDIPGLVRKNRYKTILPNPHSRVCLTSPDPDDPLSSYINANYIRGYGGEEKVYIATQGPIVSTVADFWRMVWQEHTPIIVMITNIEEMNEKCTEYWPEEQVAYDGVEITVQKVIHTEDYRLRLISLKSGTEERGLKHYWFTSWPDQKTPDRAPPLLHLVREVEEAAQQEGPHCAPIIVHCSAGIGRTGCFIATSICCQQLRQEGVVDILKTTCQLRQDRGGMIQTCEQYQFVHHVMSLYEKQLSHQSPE

[8] = cells; type: functional, cell-based; remark: listed apart in the source
[9] = target: Fructose-bisphosphate aldolase (Mycobacterium tuberculosis, UniProt P9WQA3); experiment: Fluorescence-based biochemical high throughput dose response assay for inhibitors of the fructose-bisphosphate aldolase (FBA) of M. tuberculosis.; type: functional
Fructose-bisphosphate aldolase, sequence (P9WQA3 whole entry): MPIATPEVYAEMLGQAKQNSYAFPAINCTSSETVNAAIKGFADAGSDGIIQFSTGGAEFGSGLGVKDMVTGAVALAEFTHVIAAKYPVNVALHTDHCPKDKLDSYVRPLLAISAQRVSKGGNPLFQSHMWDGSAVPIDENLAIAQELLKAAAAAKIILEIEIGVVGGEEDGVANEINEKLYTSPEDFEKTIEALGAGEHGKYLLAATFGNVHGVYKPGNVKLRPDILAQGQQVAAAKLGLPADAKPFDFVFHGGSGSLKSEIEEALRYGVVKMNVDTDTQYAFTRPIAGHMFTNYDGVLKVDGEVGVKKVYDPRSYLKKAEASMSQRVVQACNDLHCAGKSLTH

[10] = viability loss in HeLa cells – cytotoxicity control for MgcRacGAP inhibitor project, dose response (AID 624300); type: functional
[11] = Luminescence Cell-Based Dose Confirmation HTS to Identify Inhibitors of Platelet Dense Granule Release. [Related pubchem assays: 1663 (Primary HTS), 1678 (Summary of Project)]; type: functional
[12] = target: Luciferin 4-monooxygenase (Photinus pyralis, UniProt P08659); experiment: inhibition of purified Photinus pyralis luciferase – biochemical, luminescence, dose response (AID 1891)
Luciferin 4-monooxygenase, sequence (P08659 whole entry): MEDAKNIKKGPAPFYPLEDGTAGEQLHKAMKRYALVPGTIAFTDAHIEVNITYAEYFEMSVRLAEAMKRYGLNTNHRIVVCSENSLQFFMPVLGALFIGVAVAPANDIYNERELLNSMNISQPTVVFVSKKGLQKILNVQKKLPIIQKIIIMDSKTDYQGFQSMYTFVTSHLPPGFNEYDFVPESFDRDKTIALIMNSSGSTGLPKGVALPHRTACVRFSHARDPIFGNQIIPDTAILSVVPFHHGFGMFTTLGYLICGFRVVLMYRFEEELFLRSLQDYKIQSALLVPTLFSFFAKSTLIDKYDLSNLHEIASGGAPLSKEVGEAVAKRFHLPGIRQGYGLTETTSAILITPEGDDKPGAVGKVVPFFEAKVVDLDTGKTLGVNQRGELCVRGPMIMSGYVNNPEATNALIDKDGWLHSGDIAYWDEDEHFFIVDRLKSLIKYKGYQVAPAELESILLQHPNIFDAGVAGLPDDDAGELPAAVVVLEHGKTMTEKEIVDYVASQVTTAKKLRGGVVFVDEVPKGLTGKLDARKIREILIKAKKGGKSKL

[13] = target: Steroidogenic factor 1 (Homo sapiens, UniProt Q13285); experiment: Counterscreen for inverse agonists of the liver receptor homolog-1 (LRH-1; NR5A2): Luminescence-based cell-based high throughput dose response assay to identify inverse agonists of the Steroidogenic Factor 1 Nuclear Receptor (SF1; NR5A1).; type: functional
Steroidogenic factor 1, sequence (Q13285 whole entry): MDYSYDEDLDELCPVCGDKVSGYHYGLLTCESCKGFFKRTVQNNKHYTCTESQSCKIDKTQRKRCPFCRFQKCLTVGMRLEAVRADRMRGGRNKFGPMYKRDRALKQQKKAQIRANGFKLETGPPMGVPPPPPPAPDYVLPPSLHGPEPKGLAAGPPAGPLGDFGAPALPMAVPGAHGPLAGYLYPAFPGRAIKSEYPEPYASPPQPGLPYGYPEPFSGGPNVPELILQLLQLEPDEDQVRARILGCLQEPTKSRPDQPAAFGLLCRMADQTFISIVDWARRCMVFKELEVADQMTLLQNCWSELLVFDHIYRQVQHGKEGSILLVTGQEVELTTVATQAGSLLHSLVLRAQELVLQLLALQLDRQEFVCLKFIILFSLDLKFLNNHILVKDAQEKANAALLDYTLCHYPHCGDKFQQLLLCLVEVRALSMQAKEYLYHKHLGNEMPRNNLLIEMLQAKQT

[14] = target: T2, Low molecular weight phosphotyrosine protein phosphatase (Homo sapiens, UniProt P24666); type: functional; conditions: read-out: IC50_Mean;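 also: Dose-response confirmation assay measuring inhibition of LMPTP enzyme activity by fluorescence intensity read-out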
T2 sequence (P24666 whole entry): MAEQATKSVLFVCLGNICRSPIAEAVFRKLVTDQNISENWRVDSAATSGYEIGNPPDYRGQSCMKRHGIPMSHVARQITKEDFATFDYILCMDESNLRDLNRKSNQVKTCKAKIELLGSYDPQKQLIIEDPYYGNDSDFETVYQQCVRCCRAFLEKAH

[15] = target: Mitochondrial peptide methionine sulfoxide reductase (Bos taurus, UniProt P54149); type: functional;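 also: absorbance read-out, biochemical high-throughput dose-response screen for MsrA inhibitors, confirmatory; recombinant bovine MsrA coupled to E. coli TrxB with NADPH and selenocystamine; potency is for inhibitors of MsrA activity on DMSO substrate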
Mitochondrial peptide methionine sulfoxide reductase, sequence (P54149 whole entry): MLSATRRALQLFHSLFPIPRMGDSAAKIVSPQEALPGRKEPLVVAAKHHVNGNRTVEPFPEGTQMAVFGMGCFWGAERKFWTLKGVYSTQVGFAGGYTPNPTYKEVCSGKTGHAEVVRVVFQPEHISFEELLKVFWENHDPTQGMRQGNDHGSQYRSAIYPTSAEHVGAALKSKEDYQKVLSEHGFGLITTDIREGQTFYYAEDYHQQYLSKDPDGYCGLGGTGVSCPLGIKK

[16] = target: T3, Sentrin-specific protease 8 (Homo sapiens, UniProt Q96LD8); type: functional
T3 sequence (Q96LD8 whole entry): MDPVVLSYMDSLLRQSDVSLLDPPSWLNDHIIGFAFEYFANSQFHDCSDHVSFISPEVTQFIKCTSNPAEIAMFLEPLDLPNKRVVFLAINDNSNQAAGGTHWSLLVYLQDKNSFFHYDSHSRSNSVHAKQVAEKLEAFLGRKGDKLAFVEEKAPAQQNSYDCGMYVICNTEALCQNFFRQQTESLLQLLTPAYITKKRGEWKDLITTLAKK

[17] = target: T3, Sentrin-specific protease 8; type: functional; remark: listed apart in the source
[18] = tested on: Vero; experiment: viability loss in Vero cells – cell-based, plate reader, cherry-pick samples, cytotoxicity control, dose response (AID 687020); type: functional; conditions: Chlorocebus sabaeus

With `CC(=O)Nc1cc(-c2ccc(C(=O)NC3CC3)cc2)cn2c(-c3cccc(C(F)(F)F)c3)cnc12` the EC50 [1] was > 89.2 µM (inactive) and the AC50 [2] was 26.8 µM (active).
In the case of `O=C(N/N=C/c1ccc(F)cc1)c1cc(-c2ccc3c(c2)OCO3)[nH]n1`, the EC50 [3] was > 350 µM (not active), the IC50 [4] was 6.61 µM (active) and the IC50 [5] was 5.14 µM (active). For the same compound, the IC50 [6] was 9.8 µM (active), the IC50 [7] was > 80 µM (inactive) and the EC50 [8] was > 350 µM (not active).
For `CCS(=O)(=O)Nc1ccccc1C(N)=O`, the IC50 [9] was 2.58 µM (active).
For `CCN(CC)c1ccc(/C=N/NC(=O)c2ccoc2C)cc1`, the CC50 [10] was 100 µM (active), the EC50 [11] was 3.59 µM (active) and the EC50 [12] was 1.42 µM (active).
In the case of `COc1cccc(N2CCN(CC(=O)Nc3ccc(-n4cnnn4)cc3)CC2)c1`, the IC50 [13] was 6.28 µM (active).
With `CNc1cccc(-c2ccc(N3CCN(C)CC3)nc2)n1` the IC50 [9] was 2.18 µM (active).
For `COc1ccc2ncccc2c1Cc1c(OC)ccc2ncccc12`, the IC50 [14] was 9.3 µM (active).
With `COc1ccc2cc(-c3n[nH]cc3CN3CCCC3c3nonc3C)ccc2c1` (centres undefined) the IC50 [15] was 85.5 µM (inactive).
For `COC(=O)CCCC1=CC2=C(c3ccccc3)C(=O)C(C)(OC(=O)C3CCCC3)C(=O)C2=CN1C1CCCCC1` (centres undefined), the IC50 [16] was 6.2 µM (active) and the IC50 [17] was 13 µM (active).
In the case of `CCOC(=O)CC1(C)Sc2ccccc2N1S(=O)(=O)c1ccc(C)cc1` (centres undefined), the AC50 [18] was 28.5 µM (active).
